According to ChEMBL document CHEMBL2346630 (J Med Chem, 2013):

Experiments:
Experiment in all cases: biochemical
[1] = molecular target: Cyclin-dependent kinase 7/ cyclin H (Homo sapiens, UniProt P50613)
Description: Inhibition of human recombinant His6 tagged CDK7/CyclinH/MAT1 expressed in Sf21 insect cells after 40 mins by scintillation counting analysis

[2] = molecular target: Cyclin-dependent kinase 1/cyclin B1 (Homo sapiens, UniProt P06493)
Description: Inhibition of human recombinant His6 tagged CDK1/Cyclin B expressed in Sf21 insect cells after 40 mins by scintillation counting analysis

[3] = molecular target: CDK9/cyclin T1 (Homo sapiens, UniProt P50750)
Description: Inhibition of human recombinant His6 tagged CDK9/CyclinT1 expressed in Sf21 insect cells after 40 mins by scintillation counting analysis

[4] = molecular target: Cyclin-dependent kinase 2/cyclin A (Homo sapiens, UniProt P24941)
Description: Inhibition of human recombinant His6 tagged CDK2/Cyclin A expressed in Sf21 insect cells after 40 mins by scintillation counting analysis

Cyclin-dependent kinase 1/cyclin B1, sequence (P06493 whole entry): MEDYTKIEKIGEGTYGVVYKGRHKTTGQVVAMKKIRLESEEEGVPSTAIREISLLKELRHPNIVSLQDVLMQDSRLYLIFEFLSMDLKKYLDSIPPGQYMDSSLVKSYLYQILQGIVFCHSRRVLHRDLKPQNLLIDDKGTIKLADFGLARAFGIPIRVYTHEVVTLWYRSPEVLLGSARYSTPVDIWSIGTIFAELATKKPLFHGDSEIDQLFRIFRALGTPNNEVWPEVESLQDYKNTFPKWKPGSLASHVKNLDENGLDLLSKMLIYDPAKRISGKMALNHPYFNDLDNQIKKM
Cyclin-dependent kinase 1/cyclin B1, sequence (P14635 whole entry, further chain): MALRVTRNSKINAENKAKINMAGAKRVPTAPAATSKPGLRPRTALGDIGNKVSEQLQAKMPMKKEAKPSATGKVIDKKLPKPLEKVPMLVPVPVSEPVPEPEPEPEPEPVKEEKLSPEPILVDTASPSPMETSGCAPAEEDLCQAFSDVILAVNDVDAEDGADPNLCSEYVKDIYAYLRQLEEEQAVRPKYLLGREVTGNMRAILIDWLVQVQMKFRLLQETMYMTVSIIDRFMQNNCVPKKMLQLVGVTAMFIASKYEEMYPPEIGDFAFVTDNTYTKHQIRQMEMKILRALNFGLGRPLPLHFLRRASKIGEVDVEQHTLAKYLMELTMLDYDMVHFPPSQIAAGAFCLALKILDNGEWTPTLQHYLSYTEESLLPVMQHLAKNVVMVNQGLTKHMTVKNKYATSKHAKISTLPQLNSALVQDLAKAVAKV
CDK9/cyclin T1, sequence (O60563 whole entry): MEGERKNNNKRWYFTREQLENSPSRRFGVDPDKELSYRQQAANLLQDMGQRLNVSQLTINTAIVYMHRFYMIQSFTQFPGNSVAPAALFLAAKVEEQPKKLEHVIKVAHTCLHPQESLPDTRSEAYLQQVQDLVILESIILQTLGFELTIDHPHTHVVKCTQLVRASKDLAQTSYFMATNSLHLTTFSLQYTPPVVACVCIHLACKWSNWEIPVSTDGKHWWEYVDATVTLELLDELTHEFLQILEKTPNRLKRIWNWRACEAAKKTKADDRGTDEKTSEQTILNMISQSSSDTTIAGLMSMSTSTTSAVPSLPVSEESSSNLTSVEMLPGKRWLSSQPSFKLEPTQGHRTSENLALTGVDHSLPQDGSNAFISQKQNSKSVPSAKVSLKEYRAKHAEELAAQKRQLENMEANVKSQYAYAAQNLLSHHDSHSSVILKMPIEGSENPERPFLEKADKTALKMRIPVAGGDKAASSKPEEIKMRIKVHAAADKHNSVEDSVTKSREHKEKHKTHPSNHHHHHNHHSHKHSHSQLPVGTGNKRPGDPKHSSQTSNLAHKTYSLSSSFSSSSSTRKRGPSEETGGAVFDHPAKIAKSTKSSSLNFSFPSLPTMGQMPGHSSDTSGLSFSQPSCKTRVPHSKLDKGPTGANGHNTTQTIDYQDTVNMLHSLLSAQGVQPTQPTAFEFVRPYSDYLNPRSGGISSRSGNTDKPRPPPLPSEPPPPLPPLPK
CDK9/cyclin T1, sequence (P50750 whole entry): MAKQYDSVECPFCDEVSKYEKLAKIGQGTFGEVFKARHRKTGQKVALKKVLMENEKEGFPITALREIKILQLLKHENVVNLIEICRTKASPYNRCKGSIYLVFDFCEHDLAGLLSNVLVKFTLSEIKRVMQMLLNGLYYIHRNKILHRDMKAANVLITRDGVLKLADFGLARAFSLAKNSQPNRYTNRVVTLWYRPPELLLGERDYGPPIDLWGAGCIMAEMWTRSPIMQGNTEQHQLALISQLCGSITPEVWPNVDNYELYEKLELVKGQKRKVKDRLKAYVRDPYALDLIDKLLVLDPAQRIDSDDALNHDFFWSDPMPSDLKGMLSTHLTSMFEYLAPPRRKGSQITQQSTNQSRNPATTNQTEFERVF
Cyclin-dependent kinase 7/ cyclin H, sequence (P51946 whole entry): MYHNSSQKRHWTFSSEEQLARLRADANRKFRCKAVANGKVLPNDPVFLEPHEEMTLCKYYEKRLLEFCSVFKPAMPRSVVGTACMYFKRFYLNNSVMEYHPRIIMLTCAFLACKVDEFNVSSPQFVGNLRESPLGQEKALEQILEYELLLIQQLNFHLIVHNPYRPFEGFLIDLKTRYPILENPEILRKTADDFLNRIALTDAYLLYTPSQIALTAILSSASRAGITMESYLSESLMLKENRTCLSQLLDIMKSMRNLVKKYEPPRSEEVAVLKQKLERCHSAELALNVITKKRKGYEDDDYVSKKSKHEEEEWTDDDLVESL
Cyclin-dependent kinase 7/ cyclin H, sequence (P50613 whole entry): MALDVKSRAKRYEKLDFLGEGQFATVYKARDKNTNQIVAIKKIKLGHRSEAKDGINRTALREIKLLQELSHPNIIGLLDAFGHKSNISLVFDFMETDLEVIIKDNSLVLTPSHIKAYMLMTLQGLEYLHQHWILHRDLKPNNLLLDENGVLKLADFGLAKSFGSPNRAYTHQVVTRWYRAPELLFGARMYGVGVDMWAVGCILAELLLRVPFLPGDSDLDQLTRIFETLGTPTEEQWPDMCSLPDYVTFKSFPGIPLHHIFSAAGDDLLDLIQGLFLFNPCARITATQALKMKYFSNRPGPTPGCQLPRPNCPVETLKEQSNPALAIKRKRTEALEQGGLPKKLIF

SMILES | Ki [1] | Ki [2] | Ki [3] | Ki [4]
CNc1nc(-c2ccccc2)c(-c2ccnc(Nc3cccc([N+](=O)[O-])c3)n2)s1 | > 5000 nM | > 5000 nM | > 5000 nM | 
CNc1nc(C)c(-c2nc(Nc3cccc([N+](=O)[O-])c3)ncc2O)s1 | > 5000 nM | 1420 nM | 932 nM | > 5000 nM
CNc1nc(C)c(-c2ccnc(Nc3cccc(S(N)(=O)=O)c3)n2)s1 | 1960 nM | 6 nM | 2 nM | 4 nM
CNc1nc(C)c(-c2nc(Nc3cccc(S(N)(=O)=O)c3)ncc2O)s1 | > 5000 nM | > 5000 nM | > 5000 nM | > 5000 nM
CNc1nc(C)c(-c2nc(Nc3cccc(S(N)(=O)=O)c3)ncc2Cl)s1 | 685 nM |  | 11 nM | 
CNc1nc(C)c(-c2nc(Nc3cccc(S(N)(=O)=O)c3)ncc2C)s1 | 1180 nM |  | 5 nM | 34 nM
CCc1cnc(Nc2cccc(S(N)(=O)=O)c2)nc1-c1sc(NC)nc1C | 1280 nM | 788 nM | 98 nM | 845 nM
CCCc1cnc(Nc2cccc(S(N)(=O)=O)c2)nc1-c1sc(NC)nc1C |  |  | > 5000 nM | > 5000 nM
CNc1nc(C)c(-c2nc(Nc3cccc(N4CCN(C(C)=O)CC4)c3)ncc2C#N)s1 | 92 nM | 43 nM | 7 nM | 43 nM
CNc1nc(C)c(-c2nc(Nc3cccc(N4CCNCC4)c3)ncc2C#N)s1 | 68 nM | 42 nM | 5 nM | 56 nM
CNc1nc(C)c(-c2nc(Nc3ccc(N4CCN(C(C)=O)CC4)cc3)ncc2C#N)s1 | 316 nM | 45 nM | 22 nM | 26 nM
CNc1nc(C)c(-c2nc(Nc3ccc(N4CCNCC4)cc3)ncc2C#N)s1 | 71 nM | 79 nM | 6 nM | 39 nM
CNc1nc(C)c(-c2nc(Nc3cccc(N4CCCCC4)c3)ncc2C#N)s1 | 286 nM | 35 nM | 9 nM | 42 nM
CNc1nc(C)c(-c2nc(Nc3cccc(N4CCN(C(C)=O)CC4)c3)ncc2F)s1 | 302 nM | 26 nM | 7 nM | 42 nM
CNc1nc(C)c(-c2nc(Nc3cccc(N4CCNCC4)c3)ncc2F)s1 | 193 nM | 24 nM | 4 nM | 20 nM
CNc1nc(C)c(-c2nc(Nc3cccc(N4CCOCC4)c3)ncc2F)s1 | 473 nM | 18 nM | 3 nM | 20 nM

SMILES | Ki [1] | Ki [2] | Ki [3] | Ki [4]
CNc1nc(C)c(-c2nc(Nc3cccc(N4CCNCC4)c3)ncc2Cl)s1 | 155 nM | 88 nM | 4 nM | 45 nM
CNc1nc(C)c(-c2nc(Nc3cccc(N4CCCNCC4)c3)ncc2F)s1 | 111 nM | 47 nM | 5 nM | 85 nM
CNc1nc(C)c(-c2ccnc(Nc3cccc(N4CCCNCC4)c3)n2)s1 | 433 nM | 195 nM | 19 nM | 320 nM
CNc1nc(CC(F)(F)F)c(-c2ccnc(Nc3cccc([N+](=O)[O-])c3)n2)s1 | > 5000 nM | > 5000 nM | 134 nM | > 5000 nM
CNc1nc(CC(F)(F)F)c(-c2ccnc(Nc3cccc(O)c3)n2)s1 | 3470 nM | 556 nM | 245 nM | 282 nM
CNc1nc(CC(F)(F)F)c(-c2ccnc(Nc3ccc(O)cc3)n2)s1 | 1540 nM | 334 nM | 278 nM | 347 nM
CNc1nc(CC(F)(F)F)c(-c2ccnc(Nc3cccc(S(N)(=O)=O)c3)n2)s1 | 1980 nM | 154 nM | 156 nM | 226 nM
CNc1nc(C(F)(F)F)c(-c2ccnc(Nc3cccc(S(N)(=O)=O)c3)n2)s1 | 47 nM | 1.5 nM | 2 nM | 2 nM
CNc1nc(C(F)(F)F)c(-c2ccnc(Nc3ccc(S(N)(=O)=O)cc3)n2)s1 | 64 nM | 0.5 nM | 3 nM | 1.5 nM
CNc1ncc(-c2ccnc(Nc3ccc(S(N)(=O)=O)cc3)n2)s1 | 54 nM |  |  | 
CNc1ncc(-c2ccnc(Nc3cccc(S(N)(=O)=O)c3)n2)s1 | 40 nM | 4 nM | 3 nM | 5 nM
CNc1nc(C2CC2)c(-c2ccnc(Nc3cccc(S(N)(=O)=O)c3)n2)s1 | 273 nM | 18 nM | 16 nM | 2 nM
CNc1nc(C2CC2)c(-c2ccnc(Nc3ccc(S(N)(=O)=O)cc3)n2)s1 | 255 nM | 2 nM | 8 nM | 13 nM
CNc1nc(C2CC2)c(-c2ccnc(Nc3cccc(N4CCCNCC4)c3)n2)s1 | 464 nM | 176 nM | 66 nM | 326 nM
CNc1nc(C)c(-c2ccnc(Nc3cccc([N+](=O)[O-])c3)n2)s1 | 417 nM | 5 nM | 2 nM | 3 nM
